# Laboratory results: the supplement of paper PMC10307832
# Legend:
# Experiment in all cases: relative viability (nuclei count vs DMSO), 5 days (fraction); higher = more cells survive
# Neratinib = compound: CCOc1cc2ncc(C#N)c(Nc3ccc(OCc4ccccn4)c(Cl)c3)c2cc1NC(=O)/C=C/CN(C)C [Neratinib]
# Procedure, shortened: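 Five library-drug doses spaced by √10 were pinned onto vehicle-anchored 1536-well plates of lung cancer cell lines that had been kept overnight at 37 °C. Cells went 5 days without medium change, then were fixed, permeabilised and Hoechst-stained together, imaged at 4× and counted by MetaXpress. Viability is the ratio of treated-well to vehicle-well nuclei, taken as a median over plates. Plates required control CV below 25% and at least one doubling.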
# Neratinib + Tozasertib = compound: CCOc1cc2ncc(C#N)c(Nc3ccc(OCc4ccccn4)c(Cl)c3)c2cc1NC(=O)/C=C/CN(C)C [Neratinib] + Cc1cc(Nc2cc(N3CCN(C)CC3)nc(Sc3ccc(NC(=O)C4CC4)cc3)n2)n[nH]1 [Tozasertib] (partner 0.1 µM)
# Procedure, shortened: (§1)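 Lung cancer cell lines in 1536-well plates got either a single drug or a fixed anchor-drug dose together with five library-drug doses (not always all listed) in √10 steps, by pin tool, on the day after seeding. Nuclei were counted after 5 days, and relative viability is the treated-to-vehicle ratio of nuclei counts. Values are medians of duplicate plates.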
# Neratinib + Foretinib = compound: CCOc1cc2ncc(C#N)c(Nc3ccc(OCc4ccccn4)c(Cl)c3)c2cc1NC(=O)/C=C/CN(C)C [Neratinib] + COc1cc2c(Oc3ccc(NC(=O)C4(C(=O)Nc5ccc(F)cc5)CC4)cc3F)ccnc2cc1OCCCN1CCOCC1 [Foretinib] (partner 0.25 µM)
# Procedure, shortened: as §1
# Neratinib + Pemetrexed = compound: CCOc1cc2ncc(C#N)c(Nc3ccc(OCc4ccccn4)c(Cl)c3)c2cc1NC(=O)/C=C/CN(C)C [Neratinib] + Nc1nc2[nH]cc(CCc3ccc(C(=O)N[C@@H](CCC(=O)O)C(=O)O)cc3)c2c(=O)[nH]1 [Pemetrexed] (partner 0.2 µM)
# Procedure, shortened: as §1
# Neratinib + Palbociclib = compound: CCOc1cc2ncc(C#N)c(Nc3ccc(OCc4ccccn4)c(Cl)c3)c2cc1NC(=O)/C=C/CN(C)C [Neratinib] + CC(=O)c1c(C)c2cnc(Nc3ccc(N4CCNCC4)cn3)nc2n(C2CCCC2)c1=O [Palbociclib] (partner 0.5 µM)
# Procedure, shortened: as §1
# Neratinib + Dasatinib = compound: CCOc1cc2ncc(C#N)c(Nc3ccc(OCc4ccccn4)c(Cl)c3)c2cc1NC(=O)/C=C/CN(C)C [Neratinib] + Cc1nc(Nc2ncc(C(=O)Nc3c(C)cccc3Cl)s2)cc(N2CCN(CCO)CC2)n1 [Dasatinib] (partner 0.075 µM)
# Procedure, shortened: as §1
# Neratinib + Olaparib = compound: CCOc1cc2ncc(C#N)c(Nc3ccc(OCc4ccccn4)c(Cl)c3)c2cc1NC(=O)/C=C/CN(C)C [Neratinib] + O=C(c1cc(Cc2n[nH]c(=O)c3ccccc23)ccc1F)N1CCN(C(=O)C2CC2)CC1 [Olaparib] (partner 8 µM)
# Procedure, shortened: as §1
# Neratinib + Luminespib = compound: CCOc1cc2ncc(C#N)c(Nc3ccc(OCc4ccccn4)c(Cl)c3)c2cc1NC(=O)/C=C/CN(C)C [Neratinib] + CCNC(=O)c1noc(-c2cc(C(C)C)c(O)cc2O)c1-c1ccc(CN2CCOCC2)cc1 [Luminespib] (partner 0.01 µM)
# Procedure, shortened: as §1
# Neratinib + Decitabine = compound: CCOc1cc2ncc(C#N)c(Nc3ccc(OCc4ccccn4)c(Cl)c3)c2cc1NC(=O)/C=C/CN(C)C [Neratinib] + Nc1ncn([C@H]2C[C@H](O)[C@@H](CO)O2)c(=O)n1 [Decitabine] (partner 2 µM)
# Procedure, shortened: as §1
# Neratinib + OSI-027 = compound: CCOc1cc2ncc(C#N)c(Nc3ccc(OCc4ccccn4)c(Cl)c3)c2cc1NC(=O)/C=C/CN(C)C [Neratinib] + COc1cccc2cc(-c3nc([C@H]4CC[C@H](C(=O)O)CC4)n4ncnc(N)c34)[nH]c12 [OSI-027] (partner 0.5 µM)
# Procedure, shortened: as §1
# Neratinib + Phenformin = compound: CCOc1cc2ncc(C#N)c(Nc3ccc(OCc4ccccn4)c(Cl)c3)c2cc1NC(=O)/C=C/CN(C)C [Neratinib] + N=C(N)NC(=N)NCCc1ccccc1 [Phenformin] (partner 250 µM)
# Procedure, shortened: as §1
# Neratinib + AZD7762 = compound: CCOc1cc2ncc(C#N)c(Nc3ccc(OCc4ccccn4)c(Cl)c3)c2cc1NC(=O)/C=C/CN(C)C [Neratinib] + NC(=O)Nc1cc(-c2cccc(F)c2)sc1C(=O)N[C@H]1CCCNC1 [AZD7762] (partner 0.2 µM)
# Procedure, shortened: as §1
# Neratinib + Vorinostat = compound: CCOc1cc2ncc(C#N)c(Nc3ccc(OCc4ccccn4)c(Cl)c3)c2cc1NC(=O)/C=C/CN(C)C [Neratinib] + O=C(CCCCCCC(=O)Nc1ccccc1)NO [Vorinostat] (partner 1 µM)
# Procedure, shortened: as §1
# Neratinib + Trametinib = compound: CCOc1cc2ncc(C#N)c(Nc3ccc(OCc4ccccn4)c(Cl)c3)c2cc1NC(=O)/C=C/CN(C)C [Neratinib] + CC(=O)Nc1cccc(-n2c(=O)n(C3CC3)c(=O)c3c(Nc4ccc(I)cc4F)n(C)c(=O)c(C)c32)c1 [Trametinib] (partner 0.02 µM)
# Procedure, shortened: as §1
cell line,measurement,setting,value
NCI-H2342,relative viability,Neratinib; 0.01 µM,0.949
same,relative viability,Neratinib; 0.03162 µM,1.01
same,relative viability,Neratinib; 0.1 µM,0.765
same,relative viability,Neratinib; 0.3162 µM,0.582
same,relative viability,Neratinib; 1 µM,0.66
same,relative viability,Neratinib + Tozasertib; first compound 0.01 µM,0.414
same,relative viability,Neratinib + Tozasertib; first compound 0.03162 µM,0.52
same,relative viability,Neratinib + Tozasertib; first compound 0.1 µM,0.441
same,relative viability,Neratinib + Tozasertib; first compound 0.3162 µM,0.455
same,relative viability,Neratinib + Tozasertib; first compound 1 µM,0.358
same,relative viability,Neratinib + Foretinib; first compound 0.01 µM,1.08
same,relative viability,Neratinib + Foretinib; first compound 0.03162 µM,0.993
same,relative viability,Neratinib + Foretinib; first compound 0.1 µM,0.891
same,relative viability,Neratinib + Foretinib; first compound 0.3162 µM,0.703
same,relative viability,Neratinib + Foretinib; first compound 1 µM,0.525
same,relative viability,Neratinib + Pemetrexed; first compound 0.01 µM,0.722
same,relative viability,Neratinib + Pemetrexed; first compound 0.03162 µM,0.774
same,relative viability,Neratinib + Pemetrexed; first compound 0.1 µM,0.714
same,relative viability,Neratinib + Pemetrexed; first compound 0.3162 µM,0.564
same,relative viability,Neratinib + Pemetrexed; first compound 1 µM,0.497
same,relative viability,Neratinib + Palbociclib; first compound 0.01 µM,0.52
same,relative viability,Neratinib + Palbociclib; first compound 0.03162 µM,0.493
same,relative viability,Neratinib + Palbociclib; first compound 0.1 µM,0.534
same,relative viability,Neratinib + Palbociclib; first compound 1 µM,0.454
same,relative viability,Neratinib + Dasatinib; first compound 0.01 µM,0.326
same,relative viability,Neratinib + Dasatinib; first compound 0.03162 µM,0.318
same,relative viability,Neratinib + Dasatinib; first compound 0.1 µM,0.285
same,relative viability,Neratinib + Dasatinib; first compound 0.3162 µM,0.26
same,relative viability,Neratinib + Dasatinib; first compound 1 µM,0.318
same,relative viability,Neratinib + Olaparib; first compound 0.01 µM,0.397
same,relative viability,Neratinib + Olaparib; first compound 0.03162 µM,0.416
same,relative viability,Neratinib + Olaparib; first compound 0.1 µM,0.385
same,relative viability,Neratinib + Olaparib; first compound 0.3162 µM,0.331
same,relative viability,Neratinib + Olaparib; first compound 1 µM,0.298
same,relative viability,Neratinib + Luminespib; first compound 0.01 µM,0.72
same,relative viability,Neratinib + Luminespib; first compound 0.03162 µM,0.717
same,relative viability,Neratinib + Luminespib; first compound 0.1 µM,0.712
same,relative viability,Neratinib + Luminespib; first compound 0.3162 µM,0.621
same,relative viability,Neratinib + Decitabine; first compound 0.03162 µM,0.829
same,relative viability,Neratinib + Decitabine; first compound 0.1 µM,0.743
same,relative viability,Neratinib + Decitabine; first compound 0.3162 µM,0.558
same,relative viability,Neratinib + Decitabine; first compound 1 µM,0.649
same,relative viability,Neratinib + OSI-027; first compound 0.01 µM,0.73
same,relative viability,Neratinib + OSI-027; first compound 0.03162 µM,0.63
same,relative viability,Neratinib + OSI-027; first compound 0.1 µM,0.528
same,relative viability,Neratinib + OSI-027; first compound 0.3162 µM,0.464
same,relative viability,Neratinib + OSI-027; first compound 1 µM,0.462
same,relative viability,Neratinib + Phenformin; first compound 0.01 µM,0.662
same,relative viability,Neratinib + Phenformin; first compound 0.03162 µM,0.688
same,relative viability,Neratinib + Phenformin; first compound 0.1 µM,0.517
same,relative viability,Neratinib + Phenformin; first compound 0.3162 µM,0.351
same,relative viability,Neratinib + Phenformin; first compound 1 µM,0.403
same,relative viability,Neratinib + AZD7762; first compound 0.01 µM,0.519
same,relative viability,Neratinib + AZD7762; first compound 0.03162 µM,0.499
same,relative viability,Neratinib + AZD7762; first compound 0.1 µM,0.408
same,relative viability,Neratinib + AZD7762; first compound 0.3162 µM,0.267
same,relative viability,Neratinib + AZD7762; first compound 1 µM,0.379
same,relative viability,Neratinib + Vorinostat; first compound 0.01 µM,0.797
same,relative viability,Neratinib + Vorinostat; first compound 0.03162 µM,0.88
same,relative viability,Neratinib + Vorinostat; first compound 0.1 µM,0.647
same,relative viability,Neratinib + Vorinostat; first compound 0.3162 µM,0.585
same,relative viability,Neratinib + Vorinostat; first compound 1 µM,0.54
same,relative viability,Neratinib + Trametinib; first compound 0.01 µM,0.772
same,relative viability,Neratinib + Trametinib; first compound 0.03162 µM,0.772
same,relative viability,Neratinib + Trametinib; first compound 0.1 µM,0.71
same,relative viability,Neratinib + Trametinib; first compound 0.3162 µM,0.667
same,relative viability,Neratinib + Trametinib; first compound 1 µM,0.543
NCI-H1623,relative viability,Neratinib; 0.03162 µM,0.903
same,relative viability,Neratinib; 0.1 µM,0.755
same,relative viability,Neratinib; 0.3162 µM,0.333
same,relative viability,Neratinib; 1 µM,0.271
same,relative viability,Neratinib + Tozasertib; first compound 0.01 µM,0.477
same,relative viability,Neratinib + Tozasertib; first compound 0.03162 µM,0.424
same,relative viability,Neratinib + Tozasertib; first compound 0.3162 µM,0.224
same,relative viability,Neratinib + Tozasertib; first compound 1 µM,0.229
same,relative viability,Neratinib + Foretinib; first compound 0.01 µM,0.822
same,relative viability,Neratinib + Foretinib; first compound 0.03162 µM,0.856
same,relative viability,Neratinib + Foretinib; first compound 0.1 µM,0.621
same,relative viability,Neratinib + Foretinib; first compound 0.3162 µM,0.31
same,relative viability,Neratinib + Foretinib; first compound 1 µM,0.241
same,relative viability,Neratinib + Dasatinib; first compound 0.01 µM,0.578
same,relative viability,Neratinib + Dasatinib; first compound 0.03162 µM,0.538
same,relative viability,Neratinib + Dasatinib; first compound 0.1 µM,0.464
same,relative viability,Neratinib + Dasatinib; first compound 0.3162 µM,0.432
same,relative viability,Neratinib + Dasatinib; first compound 1 µM,0.26
same,relative viability,Neratinib + Luminespib; first compound 0.01 µM,0.663
same,relative viability,Neratinib + Luminespib; first compound 0.03162 µM,0.566
same,relative viability,Neratinib + Luminespib; first compound 0.1 µM,0.401
same,relative viability,Neratinib + Luminespib; first compound 0.3162 µM,0.355
same,relative viability,Neratinib + Luminespib; first compound 1 µM,0.341
same,relative viability,Neratinib + OSI-027; first compound 0.01 µM,0.496
same,relative viability,Neratinib + OSI-027; first compound 0.03162 µM,0.376
same,relative viability,Neratinib + OSI-027; first compound 0.1 µM,0.365
same,relative viability,Neratinib + OSI-027; first compound 0.3162 µM,0.213
same,relative viability,Neratinib + OSI-027; first compound 1 µM,0.261
same,relative viability,Neratinib + Phenformin; first compound 0.01 µM,0.598
same,relative viability,Neratinib + Phenformin; first compound 0.03162 µM,0.589
same,relative viability,Neratinib + Phenformin; first compound 0.1 µM,0.509
same,relative viability,Neratinib + Phenformin; first compound 0.3162 µM,0.337
same,relative viability,Neratinib + Phenformin; first compound 1 µM,0.236
